# Laboratory results taken from PMC7559125 (Pathogens, 2020).
# Legend:
# [1] = tested on: A/Yokohama/40/2016 (wild-type); experiment: microbe, parasite or virus in culture; conditions: Influenza A virus
# [2] = tested on: A/Sakai/23/2013 (wild-type); experiment: microbe, parasite or virus in culture; conditions: Influenza A virus
# [3] = tested on: A/Yokohama/59/2016 (wild-type); experiment: microbe, parasite or virus in culture; conditions: Influenza A virus
# [4] = tested on: A/Yokohama/40/2016 (wild-type); experiment: microbe, parasite or virus in culture; conditions: Influenza A virus, AX4
# [5] = tested on: A/Sakai/23/2013 (wild-type); experiment: microbe, parasite or virus in culture; conditions: Influenza A virus, AX4
# [6] = tested on: A/Yokohama/59/2016 (wild-type); experiment: microbe, parasite or virus in culture; conditions: Influenza A virus, AX4
# [7] = molecular target: neuraminidase of A/Sakai/23/2013 (wild-type) (Influenza A virus, UniProt W8DXJ8)
# [8] = molecular target: neuraminidase of A/Yokohama/59/2016 (wild-type) (Influenza A virus, UniProt A0A0X9QTS2)
# [9] = molecular target: neuraminidase of A/Yokohama/40/2016 (wild-type) (Influenza A virus, UniProt A0A0X9QTS2)
smiles,measurement,setting,value
"O=C1c2c(O)c(=O)ccn2N([C@@H]2c3ccccc3SCc3c2ccc(F)c3F)[C@@H]2COCCN12 [Baloxavir, Baloxavir acid]",IC50,[1],6.16 nM
same,IC50,[2],4.05 nM
same,IC50,[3],11 nM
"NC(=O)c1nc(F)c[nH]c1=O [Favipiravir, favipiravir]",EC50,[4],10000 nM
same,EC50,[5],6640 nM
same,EC50,[6],8810 nM
"CCC(CC)[C@H](NC(C)=O)[C@@H]1[C@H](O)[C@@H](C(=O)O)C[C@H]1N=C(N)N.O.O.O [Peramivir, peramivir trihydrate]",IC50,[7],0.01 nM
same,IC50,[8],0.08 nM
same,IC50,[9],0.07 nM
